Measured values from PubChem BioAssay AID248 (DTP/NCI, 2004).
“And” between values parts separate entries of the source, which are not always exact repeats. Equal entries are not always repeated. Toxic doses and inconclusive results are not listed. No stated cut-off is given here; in the data, active means T/C of 150% or more; inactive means T/C below 125%.

System: L1210 leukemia ip in BDF1 mice, survival T/C
Experiment: NCI In Vivo Anticancer Drug Screen. Data for tumor model L1210 Leukemia (intraperitoneal) in B6D2F1 (BDF1) mice
Settings: higher = longer survival
In short: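 Survival endpoint. Drug-treated group vs vehicle group, expressed as T divided by C. Tumor passaged by transplantation.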

Measured: T/C

C[C@@H]1C[C@@H]([C@H](O)CC2CC(=O)NC(=O)C2)C(=O)[C@@H](C)C1
inactive: endpoint: mean survival time, dose: 1.5 mg/kg/injection, schedule: Q01DX009 (ip), vehicle: saline with Tween-80 109 % of control | endpoint: mean survival time, dose: 4.31 mg/kg/injection, schedule: Q01DX Z (ip), vehicle: carboxymethylcellulose (CMC) 104 % of control | endpoint: mean survival time, dose: 5.0 mg/kg/injection, schedule: Q01DX010 (ip), vehicle: saline 103 % of control and 107 % of control | endpoint: mean survival time, dose: 7.5 mg/kg/injection, schedule: Q01DX Z (ip), vehicle: carboxymethylcellulose (CMC) 97 % of control and 100 % of control | endpoint: mean survival time, dose: 8.63 mg/kg/injection, schedule: Q01DX Z (ip), vehicle: carboxymethylcellulose (CMC) 102 % of control | endpoint: mean survival time, dose: 10.0 mg/kg/injection, schedule: Q01DX009 (ip), vehicle: acetone 106 % of control | endpoint: mean survival time, dose: 10.0 mg/kg/injection, schedule: Q01DX010 (ip), vehicle: saline 104 % of control and 108 % of control | endpoint: mean survival time, dose: 12.5 mg/kg/injection, schedule: Q01DX Z (ip), vehicle: carboxymethylcellulose (CMC) 108 % of control | endpoint: mean survival time, dose: 15.0 mg/kg/injection, schedule: Q01DX009 (ip), vehicle: Klucel (hydroxypropylcellulose) (HPC) 114 % of control | endpoint: mean survival time, dose: 15.0 mg/kg/injection, schedule: Q01DX009 (ip), vehicle: saline 123 % of control | endpoint: mean survival time, dose: 15.0 mg/kg/injection, schedule: Q01DX Z (ip), vehicle: carboxymethylcellulose (CMC) 108 % of control and 116 % of control | endpoint: mean survival time, dose: 16.0 mg/kg/injection, schedule: Q01DX015 (ip), vehicle: saline 119 % of control | endpoint: mean survival time, dose: 17.25 mg/kg/injection, schedule: Q01DX Z (ip), vehicle: carboxymethylcellulose (CMC) 103 % of control | endpoint: mean survival time, dose: 18.0 mg/kg/injection, schedule: Q01DX015 (ip), vehicle: saline 119 % of control | endpoint: mean survival time, dose: 20.0 mg/kg/injection, schedule: Q01DX009 (ip), vehicle: acetone 119 % of control | endpoint: mean survival time, dose: 20.0 mg/kg/injection, schedule: Q01DX010 (ip), vehicle: saline 110 % of control and 114 % of control | endpoint: mean survival time, dose: 24.3 mg/kg/injection, schedule: Q02DX010 (ip), vehicle: carboxymethylcellulose (CMC) 97 % of control | endpoint: mean survival time, dose: 25.0 mg/kg/injection, schedule: Q01DX Z (ip), vehicle: carboxymethylcellulose (CMC) 106 % of control | endpoint: mean survival time, dose: 25.0 mg/kg/injection, schedule: Q02DX010 (ip), vehicle: other 112 % of control | endpoint: mean survival time, dose: 27.0 mg/kg/injection, schedule: Q01DX015 (ip), vehicle: saline 107 % of control | endpoint: mean survival time, dose: 30.0 mg/kg/injection, schedule: Q01DX009 (ip), vehicle: Klucel (hydroxypropylcellulose) (HPC) 113 % of control | endpoint: mean survival time, dose: 30.0 mg/kg/injection, schedule: Q01DX009 (ip), vehicle: saline with Tween-80 121 % of control | endpoint: mean survival time, dose: 30.0 mg/kg/injection, schedule: Q04DX003 (ip), vehicle: Klucel (hydroxypropylcellulose) (HPC) 108 % of control | endpoint: mean survival time, dose: 32.0 mg/kg/injection, schedule: Q## X004 (ip), vehicle: saline 97 % of control | endpoint: mean survival time, dose: 34.5 mg/kg/injection, schedule: Q01DX Z (ip), vehicle: carboxymethylcellulose (CMC) 121 % of control | endpoint: mean survival time, dose: 36.0 mg/kg/injection, schedule: Q01DX015 (ip), vehicle: saline 115 % of control | endpoint: mean survival time, dose: 37.5 mg/kg/injection, schedule: Q02DX008 (ip), vehicle: saline 108 % of control | endpoint: mean survival time, dose: 38.0 mg/kg/injection, schedule: Q02DX010 (ip), vehicle: other 120 % of control | endpoint: mean survival time, dose: 40.0 mg/kg/injection, schedule: Q01DX010 (ip), vehicle: saline 109 % of control and 116 % of control | endpoint: mean survival time, dose: 42.0 mg/kg/injection, schedule: Q## X032 (ip), vehicle: saline 113 % of control | endpoint: mean survival time, dose: 44.0 mg/kg/injection, schedule: Q01DX001 (ip), vehicle: saline 103 % of control | endpoint: mean survival time, dose: 45.0 mg/kg/injection, schedule: Q01DX Z (ip), vehicle: methylcellulose (MC) 106 % of control | endpoint: mean survival time, dose: 45.0 mg/kg/injection, schedule: Q04DX003 (ip), vehicle: saline 106 % of control | endpoint: mean survival time, dose: 48.0 mg/kg/injection, schedule: Q## X004 (ip), vehicle: saline 96 % of control | endpoint: mean survival time, dose: 50.0 mg/kg/injection, schedule: Q01DX Z (ip), vehicle: carboxymethylcellulose (CMC) 118 % of control | endpoint: mean survival time, dose: 56.0 mg/kg/injection, schedule: Q02DX008 (ip), vehicle: saline 115 % of control | endpoint: mean survival time, dose: 60.0 mg/kg/injection, schedule: Q01DX009 (ip), vehicle: saline 102 % of control | endpoint: mean survival time, dose: 60.0 mg/kg/injection, schedule: Q01DX Z (ip), vehicle: methylcellulose (MC) 106 % of control | endpoint: mean survival time, dose: 60.0 mg/kg/injection, schedule: Q04DX003 (ip), vehicle: Klucel (hydroxypropylcellulose) (HPC) 122 % of control | endpoint: mean survival time, dose: 64.0 mg/kg/injection, schedule: Q## X032 (ip), vehicle: saline 106 % of control and 110 % of control | endpoint: mean survival time, dose: 67.0 mg/kg/injection, schedule: Q01DX001 (ip), vehicle: saline 115 % of control | endpoint: mean survival time, dose: 72.0 mg/kg/injection, schedule: Q## X004 (ip), vehicle: saline 112 % of control | endpoint: mean survival time, dose: 80.0 mg/kg/injection, schedule: Q01DX001 (ip), vehicle: alkali diluted with saline 107 % of control | endpoint: mean survival time, dose: 81.0 mg/kg/injection, schedule: Q01DX015 (ip), vehicle: saline 123 % of control | endpoint: mean survival time, dose: 85.5 mg/kg/injection, schedule: Q02DX010 (ip), vehicle: other 117 % of control | endpoint: mean survival time, dose: 90.0 mg/kg/injection, schedule: Q01DX009 (ip), vehicle: saline 97 % of control | endpoint: mean survival time, dose: 90.0 mg/kg/injection, schedule: Q04DX003 (ip), vehicle: saline 101 % of control | endpoint: mean survival time, dose: 96.0 mg/kg/injection, schedule: Q## X032 (ip), vehicle: saline 106 % of control and 115 % of control | endpoint: mean survival time, dose: 100.0 mg/kg/injection, schedule: Q01DX001 (ip), vehicle: saline 114 % of control | endpoint: mean survival time, dose: 100.0 mg/kg/injection, schedule: Q01DX009 (ip), vehicle: saline with Tween-80 100 % of control | endpoint: mean survival time, dose: 100.0 mg/kg/injection, schedule: Q01DX Z (ip), vehicle: carboxymethylcellulose (CMC) 117 % of control | endpoint: mean survival time, dose: 100.0 mg/kg/injection, schedule: Q04DX003 (ip), vehicle: saline with Tween-80 112 % of control | endpoint: mean survival time, dose: 108.0 mg/kg/injection, schedule: Q## X004 (ip), vehicle: saline 106 % of control | endpoint: mean survival time, dose: 120.0 mg/kg/injection, schedule: Q01DX001 (ip), vehicle: alkali diluted with saline 106 % of control | endpoint: mean survival time, dose: 120.0 mg/kg/injection, schedule: Q01DX009 (ip), vehicle: Klucel (hydroxypropylcellulose) (HPC) 96 % of control | endpoint: mean survival time, dose: 120.0 mg/kg/injection, schedule: Q01DX009 (ip), vehicle: saline with Tween-80 116 % of control | endpoint: mean survival time, dose: 126.0 mg/kg/injection, schedule: Q02DX008 (ip), vehicle: saline 112 % of control | endpoint: mean survival time, dose: 128.25 mg/kg/injection, schedule: Q02DX010 (ip), vehicle: other 74 % of control | endpoint: mean survival time, dose: 144.0 mg/kg/injection, schedule: Q## X032 (ip), vehicle: saline 118 % of control and 123 % of control | endpoint: mean survival time, dose: 162.0 mg/kg/injection, schedule: Q## X004 (ip), vehicle: saline 110 % of control | endpoint: mean survival time, dose: 180.0 mg/kg/injection, schedule: Q01DX001 (ip), vehicle: alkali diluted with saline 103 % of control | endpoint: mean survival time, dose: 180.0 mg/kg/injection, schedule: Q04DX003 (ip), vehicle: saline 97 % of control | endpoint: mean survival time, dose: 189.0 mg/kg/injection, schedule: Q02DX008 (ip), vehicle: saline 114 % of control | endpoint: mean survival time, dose: 200.0 mg/kg/injection, schedule: Q04DX003 (ip), vehicle: saline with Tween-80 103 % of control | endpoint: mean survival time, dose: 216.0 mg/kg/injection, schedule: Q## X032 (ip), vehicle: saline 113 % of control and 117 % of control | endpoint: mean survival time, dose: 240.0 mg/kg/injection, schedule: Q04DX003 (ip), vehicle: Klucel (hydroxypropylcellulose) (HPC) 116 % of control | endpoint: mean survival time, dose: 320.0 mg/kg/injection, schedule: Q## X032 (ip), vehicle: saline 110 % of control | endpoint: median survival time, dose: 25.0 mg/kg/injection, schedule: Q04DX003 (ip), vehicle: alkali diluted with saline 103 % of control | endpoint: median survival time, dose: 50.0 mg/kg/injection, schedule: Q04DX003 (ip), vehicle: alkali diluted with saline 106 % of control | endpoint: median survival time, dose: 100.0 mg/kg/injection, schedule: Q04DX003 (ip), vehicle: alkali diluted with saline 103 % of control | endpoint: median survival time, dose: 200.0 mg/kg/injection, schedule: Q04DX003 (ip), vehicle: alkali diluted with saline 106 % of control

O=C(N/N=C\c1cc(Cl)cc(Cl)c1O)c1cccnc1
inactive: endpoint: mean survival time, dose: 100.0 mg/kg/injection, schedule: Q01DX009 (ip), vehicle: Klucel (hydroxypropylcellulose) (HPC) 100 % of control | endpoint: mean survival time, dose: 200.0 mg/kg/injection, schedule: Q01DX009 (ip), vehicle: Klucel (hydroxypropylcellulose) (HPC) 89 % of control
